In article PMC7133791 (ChemMedChem, 2020):

What was measured:
[1] = target: M. tuberculosis topoI (MttopoI) (Mycobacterium tuberculosis, UniProt P9WG49); assay: DNA relaxation inhibition assay; assay type: biochemical; conditions: assay conditions for MttopoI not stated; data not shown
[2] = target: T1, Escherichia coli topoisomerase I (EctopoI) (Escherichia coli, UniProt P06612); assay: SPR; assay type: binding; conditions: PBS-P, pH 7.4, 1% DMSO; no DNA; average of three experimental replicates
T1 sequence (P06612 1-865): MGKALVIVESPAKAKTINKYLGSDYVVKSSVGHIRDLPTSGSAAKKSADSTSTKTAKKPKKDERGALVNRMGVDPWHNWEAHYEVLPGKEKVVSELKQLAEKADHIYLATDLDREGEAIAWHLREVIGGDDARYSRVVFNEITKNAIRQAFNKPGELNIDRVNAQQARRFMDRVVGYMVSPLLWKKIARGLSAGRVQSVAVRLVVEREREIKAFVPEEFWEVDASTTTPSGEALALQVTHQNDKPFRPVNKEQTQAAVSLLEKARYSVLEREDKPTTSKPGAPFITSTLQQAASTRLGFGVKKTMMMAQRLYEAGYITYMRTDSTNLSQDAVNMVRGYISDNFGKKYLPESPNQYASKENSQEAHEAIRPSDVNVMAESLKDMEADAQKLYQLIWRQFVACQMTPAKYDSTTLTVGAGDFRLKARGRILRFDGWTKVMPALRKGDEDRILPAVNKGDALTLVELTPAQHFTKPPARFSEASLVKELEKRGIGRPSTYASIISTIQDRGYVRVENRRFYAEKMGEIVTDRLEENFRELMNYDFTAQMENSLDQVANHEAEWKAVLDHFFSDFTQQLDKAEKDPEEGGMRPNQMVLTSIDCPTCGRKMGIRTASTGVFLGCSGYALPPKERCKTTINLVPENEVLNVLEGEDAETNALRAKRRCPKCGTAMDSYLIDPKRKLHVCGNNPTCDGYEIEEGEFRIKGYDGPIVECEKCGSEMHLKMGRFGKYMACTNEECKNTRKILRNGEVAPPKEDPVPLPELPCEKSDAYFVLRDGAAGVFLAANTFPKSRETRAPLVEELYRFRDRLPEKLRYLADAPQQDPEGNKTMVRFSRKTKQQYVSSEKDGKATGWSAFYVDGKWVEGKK

Sequence of M. tuberculosis topoI (MttopoI) (P9WG49 whole entry): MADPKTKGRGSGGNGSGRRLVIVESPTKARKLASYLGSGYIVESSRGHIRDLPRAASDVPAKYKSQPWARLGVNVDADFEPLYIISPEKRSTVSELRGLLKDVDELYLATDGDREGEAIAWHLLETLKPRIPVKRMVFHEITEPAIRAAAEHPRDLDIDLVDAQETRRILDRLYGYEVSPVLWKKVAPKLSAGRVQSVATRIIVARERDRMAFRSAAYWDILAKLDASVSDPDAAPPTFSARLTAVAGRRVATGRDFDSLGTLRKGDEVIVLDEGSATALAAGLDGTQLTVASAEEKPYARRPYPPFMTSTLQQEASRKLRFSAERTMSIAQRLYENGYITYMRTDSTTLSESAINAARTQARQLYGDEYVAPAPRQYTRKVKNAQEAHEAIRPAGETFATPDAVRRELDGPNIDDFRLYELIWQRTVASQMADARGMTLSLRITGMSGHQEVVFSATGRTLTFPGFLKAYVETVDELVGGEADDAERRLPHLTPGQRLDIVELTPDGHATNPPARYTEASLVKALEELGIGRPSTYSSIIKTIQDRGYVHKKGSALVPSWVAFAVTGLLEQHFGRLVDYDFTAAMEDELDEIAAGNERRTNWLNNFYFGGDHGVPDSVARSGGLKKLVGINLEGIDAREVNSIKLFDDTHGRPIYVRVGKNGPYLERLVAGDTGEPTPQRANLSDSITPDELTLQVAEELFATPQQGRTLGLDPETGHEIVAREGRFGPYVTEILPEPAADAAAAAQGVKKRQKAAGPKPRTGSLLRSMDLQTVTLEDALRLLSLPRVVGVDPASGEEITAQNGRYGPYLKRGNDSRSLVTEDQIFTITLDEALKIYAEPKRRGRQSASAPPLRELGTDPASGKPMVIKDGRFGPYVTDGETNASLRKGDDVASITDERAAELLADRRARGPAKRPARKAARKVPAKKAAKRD

Which results are given for `O=C(Nc1ccc(Sc2ccc(N=Nc3c(O)c(S(=O)(=O)O)cc4cc(S(=O)(=O)O)ccc34)cc2)cc1)c1ccc(N=Nc2c(O)ccc3c(S(=O)(=O)O)cc(S(=O)(=O)O)cc23)cc1` [NSC76027]?
IC50 [1]: ~3000 nM; Kd [2]: 79 ± 8 nM
